Consider 17 molecules from ChEMBL document CHEMBL4270635, “HDAC3 is a potential validated target for cancer: An overview on the benzamide-based selective HDAC3 inhibitors through comparative SAR/QSAR/QAAR approaches” (Eur J Med Chem, 2018).

Assay [1] has as its target T1, Histone deacetylase 3/Nuclear receptor corepressor 2 (HDAC3/NCoR2) (Homo sapiens, UniProt O15379). Description: biochemical. It is filed as cell-based.
Description: Inhibition of His6-tagged HDAC3/SMRT (395 to 489 residues) (unknown origin) co-expressed in baculovirus infected sf9 cells using (FAM)-labeled acetylated peptide substrate after 17 hrs by caliper microfluidic mobility shift assay
Assay [2] addresses T1, Histone deacetylase 3/Nuclear receptor corepressor 2 (HDAC3/NCoR2). In words: Inhibition of full length human C-terminal His-tagged HDAC3/N-terminal GST-tagged NCOR2 (395 to 489 residues) co-expressed in baculovirus infected sf9 cells using (FAM)-labeled acetylated peptide substrate after 60 mins by caliper microfluidic mobility shift assay.
The species entered for assay [3] is Homo sapiens. In words: Selectivity ratio of IC50 for HDAC1 (unknown origin) to IC50 for HDAC3 (unknown origin).
Assay [4] is filed under the species Homo sapiens. In words: Selectivity ratio of IC50 for HDAC2 (unknown origin) to IC50 for HDAC3 (unknown origin).
The species entered for assay [5] is Homo sapiens. Description: Selectivity ratio of IC50 for HDAC8 (unknown origin) to IC50 for HDAC3 (unknown origin).
For another assay, the target named is Histone deacetylase 3 (Homo sapiens, UniProt O15379). Description: Inhibition of HDAC3 (unknown origin).
For assay [6], the species on record is Homo sapiens. Description: Selectivity ratio of IC50 for HDAC7 (unknown origin) to IC50 for HDAC3 (unknown origin).
Assay [7] is filed under the species Homo sapiens. In words: Selectivity ratio of IC50 for HDAC6 (unknown origin) to IC50 for HDAC3 (unknown origin).
Assay [8] is filed under the species Homo sapiens. In words: Selectivity ratio of IC50 for HDAC4 (unknown origin) to IC50 for HDAC3 (unknown origin).

pIC50: −log10 of the molar value.

T1 sequence (O15379 whole entry, the tested form may be a part): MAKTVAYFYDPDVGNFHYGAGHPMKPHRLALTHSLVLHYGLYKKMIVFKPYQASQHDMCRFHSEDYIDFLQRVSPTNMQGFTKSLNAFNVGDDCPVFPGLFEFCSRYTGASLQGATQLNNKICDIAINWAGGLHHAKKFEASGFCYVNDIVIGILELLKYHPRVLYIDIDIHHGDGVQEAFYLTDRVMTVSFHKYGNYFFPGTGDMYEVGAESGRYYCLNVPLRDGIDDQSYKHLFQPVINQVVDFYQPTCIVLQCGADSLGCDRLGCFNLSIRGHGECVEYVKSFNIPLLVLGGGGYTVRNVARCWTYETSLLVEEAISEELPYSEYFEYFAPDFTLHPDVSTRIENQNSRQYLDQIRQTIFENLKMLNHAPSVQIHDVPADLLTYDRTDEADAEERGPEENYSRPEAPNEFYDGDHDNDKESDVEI
T1 sequence (Q9Y618 whole entry, further chain, the tested form may be a part): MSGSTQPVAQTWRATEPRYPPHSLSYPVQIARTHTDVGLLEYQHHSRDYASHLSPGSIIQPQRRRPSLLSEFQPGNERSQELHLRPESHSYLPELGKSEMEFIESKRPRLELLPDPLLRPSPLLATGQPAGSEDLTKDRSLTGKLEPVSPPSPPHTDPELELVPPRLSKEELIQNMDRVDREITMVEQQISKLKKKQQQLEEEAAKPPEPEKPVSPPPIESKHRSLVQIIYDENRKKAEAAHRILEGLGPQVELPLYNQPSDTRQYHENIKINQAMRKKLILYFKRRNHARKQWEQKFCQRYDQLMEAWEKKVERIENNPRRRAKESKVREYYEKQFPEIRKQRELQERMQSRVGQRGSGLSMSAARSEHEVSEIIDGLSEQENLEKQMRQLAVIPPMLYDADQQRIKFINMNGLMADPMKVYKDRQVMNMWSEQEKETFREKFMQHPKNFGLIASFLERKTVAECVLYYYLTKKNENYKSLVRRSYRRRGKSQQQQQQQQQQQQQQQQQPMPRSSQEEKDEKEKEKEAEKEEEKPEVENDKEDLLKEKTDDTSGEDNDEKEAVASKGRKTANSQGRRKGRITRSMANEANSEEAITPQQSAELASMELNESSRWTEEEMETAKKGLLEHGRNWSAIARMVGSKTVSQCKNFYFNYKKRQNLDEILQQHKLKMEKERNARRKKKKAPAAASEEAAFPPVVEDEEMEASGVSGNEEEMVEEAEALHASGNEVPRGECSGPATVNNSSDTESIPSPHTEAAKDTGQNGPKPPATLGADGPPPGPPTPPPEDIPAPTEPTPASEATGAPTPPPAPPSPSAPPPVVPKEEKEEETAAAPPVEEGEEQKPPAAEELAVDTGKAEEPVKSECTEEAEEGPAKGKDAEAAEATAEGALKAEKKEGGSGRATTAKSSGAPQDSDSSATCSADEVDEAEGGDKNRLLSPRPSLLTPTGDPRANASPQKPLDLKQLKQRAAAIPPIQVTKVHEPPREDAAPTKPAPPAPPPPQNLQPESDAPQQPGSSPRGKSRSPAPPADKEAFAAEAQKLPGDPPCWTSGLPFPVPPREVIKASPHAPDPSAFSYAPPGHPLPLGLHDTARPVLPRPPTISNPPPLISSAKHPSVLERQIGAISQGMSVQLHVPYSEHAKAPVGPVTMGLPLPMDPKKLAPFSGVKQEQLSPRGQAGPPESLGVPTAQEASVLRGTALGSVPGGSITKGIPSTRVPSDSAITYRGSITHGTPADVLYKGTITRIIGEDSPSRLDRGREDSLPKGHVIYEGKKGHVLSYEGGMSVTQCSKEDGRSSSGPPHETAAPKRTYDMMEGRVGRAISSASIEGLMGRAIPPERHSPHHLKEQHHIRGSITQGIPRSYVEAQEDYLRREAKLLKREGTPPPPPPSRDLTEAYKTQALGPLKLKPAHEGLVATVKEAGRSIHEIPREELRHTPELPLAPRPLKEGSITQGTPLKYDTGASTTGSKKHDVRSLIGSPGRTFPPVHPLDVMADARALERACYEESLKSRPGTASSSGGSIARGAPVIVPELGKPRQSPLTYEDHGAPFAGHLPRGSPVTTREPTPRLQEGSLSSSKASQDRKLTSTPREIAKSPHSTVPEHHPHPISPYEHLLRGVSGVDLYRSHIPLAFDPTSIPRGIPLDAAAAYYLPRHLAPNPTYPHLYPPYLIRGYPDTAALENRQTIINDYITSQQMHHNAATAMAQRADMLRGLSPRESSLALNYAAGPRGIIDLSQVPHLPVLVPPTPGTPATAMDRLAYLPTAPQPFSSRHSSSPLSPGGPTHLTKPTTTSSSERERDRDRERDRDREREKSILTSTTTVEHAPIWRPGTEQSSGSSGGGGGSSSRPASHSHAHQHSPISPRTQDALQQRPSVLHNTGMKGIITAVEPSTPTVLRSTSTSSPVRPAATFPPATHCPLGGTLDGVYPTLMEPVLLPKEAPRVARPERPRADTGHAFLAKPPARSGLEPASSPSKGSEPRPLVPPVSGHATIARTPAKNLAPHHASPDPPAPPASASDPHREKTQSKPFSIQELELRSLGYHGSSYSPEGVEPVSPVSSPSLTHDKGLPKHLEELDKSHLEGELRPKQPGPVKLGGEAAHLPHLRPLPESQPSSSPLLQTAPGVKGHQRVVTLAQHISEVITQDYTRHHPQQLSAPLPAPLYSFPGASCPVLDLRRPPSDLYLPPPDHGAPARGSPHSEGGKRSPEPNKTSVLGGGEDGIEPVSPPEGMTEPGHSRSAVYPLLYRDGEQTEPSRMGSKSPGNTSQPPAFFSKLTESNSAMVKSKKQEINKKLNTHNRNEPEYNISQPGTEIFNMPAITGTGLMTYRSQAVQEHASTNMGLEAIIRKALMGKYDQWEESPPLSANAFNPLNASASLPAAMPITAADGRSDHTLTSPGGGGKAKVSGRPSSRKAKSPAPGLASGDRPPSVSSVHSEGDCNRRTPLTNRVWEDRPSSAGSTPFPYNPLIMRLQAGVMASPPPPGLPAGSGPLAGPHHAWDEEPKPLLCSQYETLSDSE
Histone deacetylase 3, sequence (O15379 whole entry): as the sequence (O15379 whole entry, the tested form may be a part) above

For orientation: pIC50 means the IC50 on a negative log10 scale, so that one unit is a factor of ten. In [1], `CC(C)(C)OC(=O)Nc1cccc(-c2csc(NC(=O)CCCCCCC(=O)Nc3ccccc3N)n2)c1` gave a pIC50 of 6.80.

As for `Nc1cc(F)ccc1NC(=O)c1ccc(NC(=O)C2(c3ccccc3)CC2)cc1`, the pIC50 in [2] was 6.70.

Molecule `Nc1ccccc1NC(=O)CCCCCCC(=O)NOCc1ccccc1` gave a pIC50 in assay [1] of 6.26.

In the case of `CCOC(=O)Nc1cccc(-c2csc(NC(=O)CCCCCCC(=O)Nc3ccccc3N)n2)c1`, the pIC50 in [1] was 7.22.

As for `Nc1cc(F)ccc1NC(=O)c1ccc(NC(=O)C2(c3ccccc3)CC2)cn1`, the negative logarithm of the IC50 (pIC50) in [2] is 6.00.

As to `CC(=O)Nc1ccc(C(=O)Nc2ccc(F)cc2N)cc1`, the Ratio IC50 in the assay filed under Homo sapiens [3] and in the assay filed under Homo sapiens [4] was 17 each time.

As to `C[C@H](C(=O)Nc1ccc(C(=O)Nc2ccc(F)cc2N)cc1)c1ccccc1`, the pIC50 in [2] was 6.64 to 6.89.

Turning to `CC(=O)Nc1cccc(-c2csc(NC(=O)CCCCCCC(=O)Nc3ccccc3N)n2)c1`, the pIC50 in [1] was 7.52.

Turning to `CC[C@H](C(=O)Nc1ccc(C(=O)Nc2ccc(F)cc2N)cc1)c1ccccc1`, in assay [2], the pIC50 is 6.28 to 6.96.

As to `CC[C@@H](C(=O)Nc1ccc(C(=O)Nc2ccc(F)cc2N)cc1)c1ccccc1`, the pIC50 in assay [2] was 6.77 to 7.22.

Molecule `Nc1ccccc1NC(=O)CCCCCCC(=O)NO` had a pIC50 in assay [1] of 7.68.

For the molecule `CC(C)[C@H](C(=O)Nc1ccc(C(=O)Nc2ccc(F)cc2N)cc1)c1ccccc1`, the pIC50 in assay [2] was 7.10.

Consider `C[C@@H](C(=O)Nc1ccc(C(=O)Nc2ccc(F)cc2N)cc1)c1ccccc1`, for which the negative logarithm of the IC50 (pIC50) in assay [2] is 6.24 to 6.68.

Consider `CC(C)[C@@H](C(=O)Nc1ccc(C(=O)Nc2ccc(F)cc2N)cc1)c1ccccc1`, for which, in [2], the pIC50 was 5.77 to 6.52.

`Nc1ccccc1NC(=O)CCCCCCC(=O)Nc1ccc(-c2cn(Cc3ccccc3)nn2)cc1`: the pIC50 in assay [1] was 5.82.

Molecule `Nc1cccc(-c2csc(NC(=O)CCCCCCC(=O)Nc3ccccc3N)n2)c1` had a negative-log IC50 (pIC50) in assay [1] of 7.22.

Turning to `C=C1CN(Cc2ccc(C(=O)Nc3ccccc3N)cc2)C(=O)c2ccccc21`, the Ratio IC50 in the assay listed under Homo sapiens [3], in the assay filed under Homo sapiens [5], in the assay listed under Homo sapiens [6], in the assay filed under Homo sapiens [7], in the assay listed under Homo sapiens [8] and in the assay listed under Homo sapiens [4] was 2 throughout. At Histone deacetylase 3, this molecule showed a pIC50 of 7.80.
